Experimental data: patent publication US5571832A (priority 1994, dated 1996)

How the values were obtained:
[1] = test system: sigma receptor; conditions: cited from earlier work
[2] = molecular target: sigma receptor (Cavia porcellus, UniProt Q60492); test: biochemical
[3] = test system: NMDA receptor; conditions: Carter et al 1988; cited from earlier work

Chain of sigma receptor (Cavia porcellus, UniProt Q60492) (Q60492 whole entry): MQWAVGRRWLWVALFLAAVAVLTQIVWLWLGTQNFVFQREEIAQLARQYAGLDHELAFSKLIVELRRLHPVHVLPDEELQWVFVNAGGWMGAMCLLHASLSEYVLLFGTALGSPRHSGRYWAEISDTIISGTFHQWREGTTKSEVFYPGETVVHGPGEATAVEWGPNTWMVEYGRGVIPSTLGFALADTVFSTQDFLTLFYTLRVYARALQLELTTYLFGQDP

| Ki [2] | Compound | NMDA receptor antagonism [3] | other results |
| --- | --- | --- | --- |
|  | CN(CCc1ccc(Cl)c(Cl)c1)[C@@H]1CCCC[C@@H]1N1CCCC1 (single isomer, unassigned) [cis-N-[3,4-dichlorophenylethyl]-N-methyl-2-(1-pyrrolidinyl)cyclohexylamine] |  | sigma ligand potency and selectivity [1]: extremely potent and selective ligands for the sigma receptor |
| 3.69 ± 0.85 nM | CN(CCc1ccc(Cl)c(Cl)c1)CC1CCCCN1C (stereo not drawn) [Compound 2, 2-[N-[2-(3,4-Dichlorophenyl)ethyl]-N-(methyl)aminomethyl]-1-(methyl)piperidine] |  |  |
| 1.48 ± 0.37 nM | CCN1CCCC1CN(C)CCc1ccc(Cl)c(Cl)c1 (stereo not drawn) [Compound 4, 2-[N-(3,4-Dichlorophenylethyl)-N-(methyl)aminomethyl]-1-(ethyl)pyrrolidine] |  |  |
| 16 ± 3.62 nM | CCN1CCCC1CNCCc1ccc(Cl)c(Cl)c1 (stereo not drawn) [Compound 3, 2-[N-(3,4-dichlorophenylethyl)aminomethyl]-1-(ethyl)pyrrolidine] |  |  |
|  | 1-(4-chlorophenyl)-2-[1-(4-fluorophenyl)piperidinyl]ethanol | non-competitive NMDA receptor antagonists |  |
|  | CC(C(O)c1ccc(O)cc1)N1CCC(Cc2ccccc2)CC1 (stereo not drawn) [ifenprodil] | non-competitive NMDA receptor antagonists |  |
